The results in this text go back to patent US12162867B2, “Inhibitors of RNA helicase DHX9 and uses thereof” (ACCENT THERAPEUTICS, INC., priority 2022, dated 2024).

Molecules are shown by their SMILES.

One assay relates to NCI-H747 cells. Kind of assay: DHX9 cellular proliferation assay (CellTiter-Glo), NCI-H747 (CRC-MSS). Format: cell-based. The note with it: Homo sapiens, NCI-H747, NCI-H747, CRC-MSS; performed at Pharmaron; read-out: H747 (CRC-MSS) Antiproliferative IC50.
For `CS(=O)(=O)Nc1cc(Cl)cc(NC(=O)c2cc(-c3ccccc3OCc3ccccc3)cs2)c1` [Example 111], the concentration for half-maximal inhibition (IC50) was above 10000 nM. On the same count and under the same terms, as for `CS(=O)(=O)Nc1cc(Cl)cc(NC(=O)c2cnn(-c3ncccc3OCc3cc(F)cc(F)c3)c2)c1` [Example 187], the figure is above 10000 nM.

The same assay, now with this note: Homo sapiens, NCI-H747, NCI-H747; performed at Pharmaron; read-out: H747 (CRC-MSS) Antiproliferative IC50.
Turning to `Cc1sc(C(=O)Nc2cc(Cl)cc(NS(C)(=O)=O)c2)cc1-c1ncc(N2CC(C(F)(F)F)C2)cc1F` [Example 460, N-(3-chloro-5-(methylsulfonamido)phenyl)-4-(3-fluoro-5-(3-(trifluoromethyl)azetidin-1-yl)pyridin-2-yl)-5-methylthiophene-2-carboxamide], the IC50 worked out at 3800 nM. Still for that read-out and setting: for `CC(Oc1cccnc1-c1cc(C(=O)Nc2cc(Cl)cc(NS(C)(=O)=O)c2)cn1C)c1cc(F)cc(C(F)(F)F)c1` (single isomer, unassigned) [Example 629, N-(3-chloro-5-methanesulfonamidophenyl)-5-{3-[1-[3-fluoro-5-(trifluoromethyl)phenyl]ethoxy]pyridin-2-yl}-1-methyl-1H-pyrrole-3-carboxamide] the value was above 10000 nM.

In a further assay the test system is LS411N cells. Kind of assay: DHX9 cellular proliferation assay (CellTiter-Glo), LS411N (CRC-MSI). Format: cell-based. The note with it: Homo sapiens, LS-411N, LS411N, CRC-MSI-H; performed at Pharmaron; read-out: LS411N (CRC-MSI-H) Antiproliferative IC50.
On to `CS(=O)(=O)Nc1cc(Cl)cc(NC(=O)c2cc(-c3ccccc3OCc3ccccc3)cs2)c1` [Example 111], for which the IC50 turned out to be 318 nM. Still for that read-out and setting: as for `CS(=O)(=O)Nc1cc(Cl)cc(NC(=O)c2cnn(-c3ncccc3OCc3cc(F)cc(F)c3)c2)c1` [Example 187], the figure is 77.3 nM.

Staying with this assay, now noted: Homo sapiens, LS-411N, LS411N; performed at Pharmaron; read-out: LS411N (CRC-MSI-H) Antiproliferative IC50.
Take `Cc1sc(C(=O)Nc2cc(Cl)cc(NS(C)(=O)=O)c2)cc1-c1ncccc1OC(C)c1cncc(F)c1` (stereo not drawn) [Example 630]: the IC50 was determined as 98.3 nM. On the same count and under the same terms, as for `CC(Oc1cccnc1-c1cc(C(=O)Nc2cc(Cl)cc(NS(C)(=O)=O)c2)cn1C)c1cc(F)cc(C(F)(F)F)c1` (single isomer, unassigned) [Example 629, N-(3-chloro-5-methanesulfonamidophenyl)-5-{3-[1-[3-fluoro-5-(trifluoromethyl)phenyl]ethoxy]pyridin-2-yl}-1-methyl-1H-pyrrole-3-carboxamide], the figure is 69.2 nM.

The test system of the next assay is circBRIP1 in HCT116 cells. Kind of assay: DHX9 circBRIP1 cellular target engagement SYBR Green assay (qPCR). It counts as cell-based. The note with it: Homo sapiens, HCT-116, circBRIP1, HCT116 cells; SyBr assay (marked ^+); read-out: DHX9 Cellular Target Engagement EC50.
For `CS(=O)(=O)Nc1cc(Cl)cc(NC(=O)c2cc(-c3ccccc3OCc3ccccc3)cs2)c1` [Example 111], the EC50 amounted to 161 nM.

A further assay relates to circBRIP1 in HCT116 cells. Kind of assay: DHX9 circBRIP1 cellular target engagement TaqMan Multiplex assay (qPCR). Format: cell-based. The note with it: Homo sapiens, HCT-116, 72 h, circBRIP1, HCT116 cells, 72 hours; Taqman assay (marked *); read-out: DHX9 Cellular Target Engagement EC50.
For the compound `Cc1sc(C(=O)Nc2cc(Cl)cc(NS(C)(=O)=O)c2)cc1-c1ncc(F)cc1Cl` [Example 359], the EC50 turned out to be 0.13 µM. On the same count and under the same terms, as for `CCS(=O)(=O)Nc1cc(Cl)cc(NC(=O)c2cc(-c3ncc(C(F)(F)F)cn3)c(C)s2)c1` [Example 366], the figure is 0.128 µM; as for `COc1cnc(-c2cc(C(=O)Nc3cc(Cl)cc(NS(C)(=O)=O)c3)sc2C)c(Cl)c1` [Example 364], 0.387 µM.

Regarding `Cc1sc(C(=O)Nc2cc(Cl)cc(NS(C)(=O)=O)c2)cc1-c1c(F)cc(F)cc1F` [Example 378], the EC50 came out at 0.361 µM.

As to `Cc1cccnc1-c1ccc(C(=O)Nc2cc(Cl)cc(NS(C)(=O)=O)c2)s1` [Example 386], the concentration for a half-maximal effect (EC50) was 1.97 µM. Same read-out and setting: for `Cc1cc(F)cnc1-c1cc(C(=O)Nc2cc(Cl)cc(NS(C)(=O)=O)c2)sc1C` [Example 348] the value was 0.228 µM; for `CS(=O)(=O)Nc1cc(Cl)cc(NC(=O)c2cc(-c3ccc(C(F)(F)F)cn3)cs2)c1` [Example 370], 0.171 µM.

For the compound `Cn1cc(C(=O)Nc2cc(Cl)cc(NS(C)(=O)=O)c2)cc1-c1ncc(F)cc1OC(F)F` [Example 363], the EC50 worked out at 0.171 µM. In the case of `CCCS(=O)(=O)Nc1cc(Cl)cc(NC(=O)c2cc(-c3ncccc3C)cs2)c1` [Example 372], the EC50 was found to be 2.12 µM. Still for that read-out and setting: for `Cc1sc(C(=O)Nc2cc(Cl)cc(NS(C)(=O)=O)c2)cc1-c1ncc(C(F)(F)F)cn1` [Example 357] the value was 0.119 µM.

Still in this assay, the particulars now being: Homo sapiens, HCT-116, circBRIP1, HCT116 cells; * Taqman assay was used; read-out: DHX9 Cellular Target Engagement EC50.
Consider `Cc1sc(C(=O)Nc2cc(Cl)cc(NS(C)(=O)=O)c2)cc1-c1ncccc1OC(C)c1cncc(F)c1` (stereo not drawn) [Example 630], for which the EC50 amounted to 0.0892 µM. The same measure, in the same setting: as for `CC(C)n1cc(C(=O)Nc2cc(Cl)cc(NS(C)(=O)=O)c2)cc1-c1ncc(F)cn1` [Example 667], the figure is 0.804 µM; as for `Cc1sc(C(=O)Nc2cc(Cl)cc(NS(C)(=O)=O)c2)cc1-c1ncc(C(C)(O)C2CN(C)C2)cc1F` (stereo not drawn) [Example 653], 0.292 µM. As to `CN1CC(Oc2cnc(-c3cc(C(=O)Nc4cc(Cl)cc(NS(C)(=O)=O)c4)cn3CC(F)(F)F)c(F)c2)C1` [Example 638], the EC50 was 0.0621 µM. Same read-out and setting: for `Cc1cnc(-c2cc(C(=O)Nc3cc(Cl)cc(NS(C)(=O)=O)c3)cn2C)c(F)c1` [Example 580] the value was 0.156 µM; for `CS(=O)(=O)Nc1cc(Cl)cc(NC(=O)c2cc(-c3ncc(F)cn3)n(C3CC3)c2)c1` [Example 712], 0.312 µM.

Take `CCc1cncc(COc2cccnc2-c2cc(C(=O)Nc3cc(Cl)cc(NS(C)(=O)=O)c3)cn2C)c1` [Example 730]: the EC50 was 0.171 µM. The same measure, in the same setting: as for `Cn1cc(C(=O)Nc2cc(Cl)cc(NS(C)(=O)=O)c2)cc1-c1ncc(N2CCN(C(=O)C3CC3)CC2)cc1F` [Example 714], the figure is 0.181 µM; as for `CCc1sc(C(=O)Nc2cc(Cl)cc(NS(C)(=O)=O)c2)cc1-c1ncc(F)cc1F` [Example 588], 0.461 µM; as for `Cc1cc(C(=O)Nc2cc(Cl)cc(NS(C)(=O)=O)c2)cn1-c1ncc(F)cc1F` [Example 444], 0.16 µM. On the same count and under the same terms, as for `CS(=O)(=O)Nc1cc(Cl)cc(NC(=O)c2cc(-c3ncc(F)cn3)n(CC(F)(F)F)c2)c1` [Example 562], the figure is 0.543 µM; as for `Cc1sc(C(=O)Nc2cc(Cl)cc(NS(C)(=O)=O)c2)cc1-c1ncc(OC(C)CO)cn1` (stereo not drawn) [Example 677], 0.0137 µM.

Take `Cn1cc(C(=O)Nc2cc(Cl)cc(NS(C)(=O)=O)c2)cc1-c1ncc(C(F)(F)F)cc1F` [Example 554]: the EC50 turned out to be 0.238 µM. As to `Cn1cc(C(=O)Nc2cc(Cl)cc(NS(C)(=O)=O)c2)cc1-c1ncc(F)cc1OCc1cnnn1C` [Example 726], the 50% effective concentration (EC50) came out at 0.32 µM.

As to `Cc1cc(C(=O)Nc2cc(Cl)cc(NS(C)(=O)=O)c2)cn1-c1ncc(N2CCC3(C2)CC3(F)F)cc1F` (stereo not drawn) [Example 414], the EC50 is 0.128 µM. Still for that read-out and setting: as for `Cc1cc(C(=O)Nc2cc(Cl)cc(NS(C)(=O)=O)c2)cn1-c1ncc(F)cc1-c1cncc(F)c1` [Example 666], the figure is 0.427 µM. Regarding `Cc1ccnc(OCc2cncc(F)c2)c1-c1cc(C(=O)Nc2cc(Cl)cc(NS(C)(=O)=O)c2)cn1C` [Example 624], the EC50 came out at 0.442 µM.

Consider `Cc1sc(C(=O)Nc2cc(Cl)cc(NS(C)(=O)=O)c2)cc1-c1ncc(OC2CNC2)cc1F` [Example 637], for which the EC50 amounted to 0.427 µM.

On to `Cn1cc(C(=O)Nc2cc(Cl)cc(NS(=O)(=O)C3CC3)c2)cc1-c1ccc(N2CC(F)(F)C2)cn1` [Example 530], for which the half-maximal effective concentration (EC50) was above 10 µM.

As to `Cn1cc(C(=O)Nc2cc(Cl)cc(NS(C)(=O)=O)c2)cc1-c1c(F)cc(F)c[n+]1[O-]` [Example 567], the EC50 was found to be 0.34 µM.

With `Cn1cc(C(=O)Nc2cc(Cl)cc(NS(C)(=O)=O)c2)cc1-c1ccccc1/C=C/c1cncc(F)c1` [Example 727], the concentration giving a half-maximal response (EC50) was 0.71 µM. Still for that read-out and setting: for `Cc1sc(C(=O)Nc2cc(Cl)cc(NS(C)(=O)=O)c2)cc1-c1ncc(P(C)(C)=O)cn1` [Example 648] the value was 0.471 µM. As for `Cc1sc(C(=O)Nc2cc(Cl)cc(NS(C)(=O)=O)c2)cc1-c1ncc(OC(C)(C)C(=O)O)cn1` [Example 670], the EC50 is above 10 µM. As for `Cc1sc(C(=O)Nc2cc(Cl)cc(NS(C)(=O)=O)c2)cc1-c1ncc(N2CCC3(CC2)CC3)cc1F` [Example 467], the 50% effective concentration (EC50) came out at 0.164 µM. The same measure, in the same setting: for `Cc1cc(C(=O)Nc2cc(Cl)cc(NS(C)(=O)=O)c2)cn1-c1ncc(OC(C)(C)C)cc1F` [Example 662] the value was 0.14 µM; for `CS(=O)(=O)Nc1cc(Cl)cc(NC(=O)c2cc(-c3ncc(N4CC(F)(F)C4)cc3F)cs2)c1` [Example 488], 0.285 µM. Take `Cc1nc(COc2cc(F)cnc2-c2cc(C(=O)Nc3cc(Cl)cc(NS(C)(=O)=O)c3)cn2C)cs1` [Example 724]: the concentration for a half-maximal effect (EC50) is 0.224 µM.

For `Cc1cc(N2CCC(F)(F)CC2)cnc1-c1cc(C(=O)Nc2cc(Cl)cc(NS(C)(=O)=O)c2)cn1C` [Example 600], the EC50 was 0.186 µM.

For the compound `Cn1cc(C(=O)Nc2cc(Cl)cc(NS(C)(=O)=O)c2)cc1-c1ncc(N2CCC(C(F)(F)F)CC2)cc1F` [Example 472], the concentration for a half-maximal effect (EC50) amounted to 0.127 µM.

Take `CS(=O)(=O)Nc1cc(Cl)cc(NC(=O)c2cc(-c3ncccc3F)n(CC(F)(F)F)c2)c1` [Example 564]: the EC50 stood at 0.761 µM.

For `CS(=O)(=O)Nc1cc(Cl)cc(NC(=O)c2cc(-c3ccc(F)cn3)n(S(C)(=O)=O)c2)c1` [Example 701], the EC50 amounted to 0.638 µM. As for `Cc1sc(C(=O)Nc2cc(Cl)cc(NS(C)(=O)=O)c2)cc1-c1ncc(N2CCC(C(F)(F)F)CC2)cc1F` [Example 481], the EC50 worked out at 0.128 µM. On the same count and under the same terms, for `Cc1sc(C(=O)Nc2cc(Cl)cc(NS(C)(=O)=O)c2)cc1-c1ncc(F)cc1N1CCC2(CC1)CC2` [Example 507] the value was 1.86 µM; for `Cc1cc(C(=O)Nc2cc(Cl)cc(NS(C)(=O)=O)c2)cn1-c1ncc(N2CCOC2=O)cn1` [Example 417], 0.223 µM; for `Cn1cc(C(=O)Nc2cc(Cl)cc(NS(C)(=O)=O)c2)cc1-c1ncc(F)cc1/C=C/c1cncc(F)c1` [Example 729], 0.382 µM. Still for that read-out and setting: for `CN1CC[C@H](Oc2cnc(-c3cc(C(=O)Nc4cc(Cl)cc(NS(C)(=O)=O)c4)cn3CC(F)(F)F)nc2)C1` [Example 642] the value was 0.0945 µM. On the same count and under the same terms, for `Cc1cc(C(=O)Nc2cc(Cl)cc(NS(C)(=O)=O)c2)cn1-c1ncc(N2CC(F)(F)C2)cc1Cl` [Example 406] the value was 0.161 µM; for `Cn1cc(C(=O)Nc2cc(F)cc(NS(C)(=O)=O)c2)cc1-c1ncc(F)cc1F` [Example 558], 2.91 µM; for `CS(=O)(=O)Nc1cc(Cl)cc(NC(=O)c2cc(-c3ncc(F)cn3)c(Cl)s2)c1` [Example 450], 0.266 µM.

The same assay, now with this note: Homo sapiens, HCT-116, circBRIP1, HCT116 cells; cell carries no mark, SyBr or Taqman not indicated; read-out: DHX9 Cellular Target Engagement EC50.
For `Cc1sc(C(=O)Nc2cc(Cl)cc(NS(C)(=O)=O)c2)cc1-c1c(F)cc(F)c[n+]1[O-]` [Example 736], the EC50 worked out at 0.372 µM.

Still in this assay, the particulars now being: Homo sapiens, HCT-116, read-out: DHX9 Cellular Target Engagement EC50 (μM).
Turning to `Cc1sc(C(=O)Nc2cc(Cl)cc(NS(C)(=O)=O)c2)cc1-c1ncc(N2CC[Si](C)(C)CC2)cc1F` [Example 473], the EC50 came to 0.426 µM.
